In patent US6969714B2, “Imidazolo-5-YL-2-anilino-pyrimidines as agents for the inhibition of the cell proliferation” (AstraZeneca AB, priority 2000, dated 2005):

Molecular target: T1, CDK2/Cyclin E (Homo sapiens, UniProt P24941)
T1 construct: The open reading frames of CDK2 and Cyclin E were isolated; made in house; host or cells: Sf21 (Spodoptera frugiperda) insect cells, baculovirus co-infection; the GST-Rb substrate was made in E. coli BL21 (DE3) pLysS
Test: in vitro kinase assay, Scintillation Proximity Assay, incorporation of [γ-33-P]-ATP into GST-Rb
Assay type: biochemical
Settings: GST-Rb substrate, 0.2 μM ATP, 60 minutes at room temperature, read-out: CDK2 inhibitory activity IC50
Procedure: The compounds were tested in an in vitro kinase assay in 96 well format using Scintillation Proximity Assay (SPA—obtained from Amersham) for measuring incorporation of [γ-33-P]-Adenosine Triphosphate into a test substrate (GST-Retinoblastoma protein; GST-Rb). In each well was placed the compound to be tested (diluted in DMSO and water to correct concentrations) and in control wells either roscovitine as an inhibitor control or DMSO as a positive control. […]
The plates were sealed with Topseal-S plate sealers, left for two hours then spun at 2500 rpm, 1124×g., for 5 minutes. The plates were read on a Topcount for 30 seconds per well. […]
E. coli paste was resuspended in 10 ml/g of NETN buffer (50 mM Tris pH 7.5, 120 mM NaCl, 1 mM EDTA, 0.5% v/v NP-40, 1 mM PMSF, 1 ug/ml leupeptin, 1 ug/ml aprotinin and 1 ug/ml pepstatin) and sonicated for 2×45 seconds per 100 ml homogenate. […] The final product was analysed by Sodium Dodeca Sulfate (SDS) PAGE (Polyacrylamide gel) using 8-16% Tris-Glycine gels (Novex, San Diego, USA).
The open reading frames of CDK2 and Cyclin E were isolated by reverse transcriptase-PCR using HeLa cell and activated T cell mRNA as a template and cloned into the insect expression vector pVL1393 (obtained from Invitrogen 1995 catalogue number: V1392-20). […]

Structure (SMILES): Cn1cncc1-c1ccnc(Nc2ccccc2)n1 [Example 14, 2-Anilino-4-(1-methylimidazol-5-yl)pyrimidine]
- IC50: 0.146 µM
